“And” between values parts separate entries of the source, which are not always exact repeats. Equal values may be shown once. Read-outs that look alike come from different tables or passages of the source.

The values that follow come from patent US11981630B1, “Abietane type diterpene compound, preparation method and application thereof” (Hangzhou Normal University, priority 2022, dated 2024).

Assay [1] relates to human promyelocytic leukemia cell HL-60. The assay is described as follows: in vitro tumor cell proliferation inhibition assay (MTT), HL-60. Format: cell-based. Particulars: for absorbance at 570 nm, Average: average of 3 wells; for absorbance at 570 nm, Average / Survival / absorbance at 570 nm (single well, S/N 1-3): parallel tests I-III; for absorbance at 570 nm (single well, S/N 1-3): MTT. As for the experimental part: (§1) The abietane type diterpene compound Leucosceptrum A prepared in Embodiment 2 is tested for its anti-tumor ability, with a process as follows: in vitro tumor cell proliferation inhibition assay: exponential phase tumor cells are taken and the cell suspension concentration is adjusted (50,000-100,000 cells/mL), then the cell suspension is inoculated in 96-well plate with 100 microlitres (u L) per well (M L/well), followed by drug administration (100 μL/well) 24 h after inoculation; a blank control group, a cell control group and 6 drug groups with concentrations (3.12, 6.25, 12.5, 25, 50, 100 micromoles per litre (u mol/L)) are set up respectively, and the drug in the cell control group is cisplatin; after continuous cultivation for 72 […]

For assay [2], the system named is human lung cancer cell A549. The assay is described as follows: in vitro tumor cell proliferation inhibition assay (MTT), A549. The note with it: for absorbance at 570 nm, Average: average of 3 wells; for absorbance at 570 nm, Average / Survival / absorbance at 570 nm (single well, S/N 1-3): parallel tests I-III; for absorbance at 570 nm (single well, S/N 1-3): MTT. Format: cell-based. Here is the method: as §1

For the next assay, the system named is mouse sarcoma cells. Particulars: MTT assay, reported in CN101633660A; cited from earlier work. (In general: Tetrazolium dyes change colour on reduction, which living cells bring about.)
The test system of a further assay is mouse liver cancer cells. The note with it: MTT assay, reported in CN101633660A; cited from earlier work.
[3] abbreviates: HL-60, 72 h, mean ± spread of parallel tests, unit inferred, read-out: IC50 obtained according to the above data (three parallel tests).
The mark [4] stands for this setting: HL-60, 72 h, one value per parallel test I, II, III, unit not given (concentrations in μmol/L), read-out: IC50 according to Graphpad Prism 6.0 (single parallel test).
[5] abbreviates: A549, 72 h, mean ± spread of parallel tests, unit inferred, read-out: IC50 according to the above data (three parallel tests).
The mark [6] stands for this setting: A549, 72 h, one value per parallel test I, II, III, unit not given (concentrations in μmol/L), read-out: IC50 according to Graphpad Prism 6.0 (single parallel test).

On to `N.N.[Cl][Pt][Cl]` [Cisplatin, cisplatin, reference compound], for which the “absorbance at 570 nm, Average” value is 0.6123 and 0.433 and 0.4877 in assay [1] (HL-60, 3.12 μmol/L, 72 h); 0.416 and 0.3023 and 0.4303 in assay [1] (HL-60, 6.25 μmol/L, 72 h); 0.312 and 0.2347 and 0.231 in assay [1] (HL-60, 12.5 μmol/L, 72 h); 0.11 and 0.076 and 0.0597 in assay [1] (HL-60, 50 μmol/L, 72 h); 0.0213 and 0.0253 and 0.017 in assay [1] (HL-60, 100 μmol/L, 72 h); 0.666 and 0.6207 and 0.678 in assay [2] (A549, 3.12 μmol/L, 72 h). For the same compound, the “absorbance at 570 nm, Average” value is 0.442 and 0.4673 and 0.4623 in assay [2] (A549, 6.25 μmol/L, 72 h); 0.2543 and 0.2593 and 0.265 in assay [2] (A549, 12.5 μmol/L, 72 h); 0.2027 and 0.2047 and 0.2257 in assay [2] (A549, 50 μmol/L, 72 h); 0.1913 and 0.189 and 0.2023 in assay [2] (A549, 100 μmol/L, 72 h). The Survival was 96.57% and 87.56% and 92.66% in assay [1] (HL-60, 3.12 μmol/L, 72 h); 65.51% and 61.20% and 81.78% in assay [1] (HL-60, 6.25 μmol/L, 72 h); 49.05% and 47.55% and 43.96% in assay [1] (HL-60, 12.5 μmol/L, 72 h); 43.57% and 22.80% and 31.06% in assay [1] (HL-60, 25 μmol/L, 72 h); 17.09% and 15.53% and 11.45% in assay [1] (HL-60, 50 μmol/L, 72 h); 3.06% and 5.31% and 3.35% in assay [1] (HL-60, 100 μmol/L, 72 h). The Survival in assay [2] (A549, 3.12 μmol/L, 72 h) is 97.75% and 98.46% and 96.86%; in assay [2] (A549, 6.25 μmol/L, 72 h), 64.82% and 74.09% and 66.03%; in assay [2] (A549, 12.5 μmol/L, 72 h), 37.24% and 41.02% and 37.88%; in assay [2] (A549, 25 μmol/L, 72 h), 35.18% and 37.36% and 35.35%; in assay [2] (A549, 50 μmol/L, 72 h), 29.64% and 32.33% and 32.21%; in assay [2] (A549, 100 μmol/L, 72 h), 27.98% and 29.84% and 28.87%. For the same compound, in assay [1] (HL-60, 12.5 μmol/L, 72 h), the “absorbance at 570 nm (single well, S/N 1-3)” value is 0.346 and 0.244 and 0.185 and 0.299 and 0.22 and 0.197 and 0.201 and 0.295. Also, the IC50 in assay [1] (setting [3]) was 12.7 ± 1.87 µM; in assay [1] (setting [4]), 14.4 µM and 10.7 µM and 13.2 µM; in assay [2] (setting [5]), 16 ± 1.69 µM; in assay [2] (setting [6]) it was 14.6 µM and 17.9 µM and 15.4 µM.
`C=C(C)c1cc(O)c2c(c1O)C(=O)CC1C(C)(C)CCCC21C` (stereo not drawn) [Leucosceptrum A, 11,14-dihydroxy-8,11,13,15-abietatetraen-7-one]: the “absorbance at 570 nm, Average” value in assay [1] (HL-60, 3.12 μmol/L, 72 h) was 0.4477 and 0.4213 and 0.3807; in assay [1] (HL-60, 6.25 μmol/L, 72 h) it was 0.3683 and 0.3987 and 0.364; in assay [1] (HL-60, 12.5 μmol/L, 72 h), 0.221 and 0.1817 and 0.281; in assay [1] (HL-60, 25 μmol/L, 72 h), 0.0887 and 0.0577 and 0.069; in assay [1] (HL-60, 50 μmol/L, 72 h) it was 0.052 and 0.0433 and 0.048; in assay [1] (HL-60, 100 μmol/L, 72 h), 0.0303 and 0.032 and 0.039. Besides, the “absorbance at 570 nm, Average” value in assay [2] (A549, 3.12 μmol/L, 72 h) is 0.815 and 0.7807 and 0.813; in assay [2] (A549, 6.25 μmol/L, 72 h) it was 0.7823 and 0.7553 and 0.7943; in assay [2] (A549, 12.5 μmol/L, 72 h) it was 0.6333 and 0.6687 and 0.59; in assay [2] (A549, 25 μmol/L, 72 h), 0.1827 and 0.192 and 0.1953; in assay [2] (A549, 50 μmol/L, 72 h) it was 0.0813 and 0.07 and 0.0793; in assay [2] (A549, 100 μmol/L, 72 h) it was 0.0767 and 0.0657 and 0.069. Moreover, the Survival in assay [1] (HL-60, 3.12 μmol/L, 72 h) was 82.21% and 78.96% and 66.67%; in assay [1] (HL-60, 6.25 μmol/L, 72 h) it was 67.61% and 74.70% and 63.73%; in assay [1] (HL-60, 12.5 μmol/L, 72 h), 40.49% and 33.94% and 49.09%; in assay [1] (HL-60, 25 μmol/L, 72 h), 16.13% and 10.64% and 11.79%; in assay [1] (HL-60, 50 μmol/L, 72 h) it was 9.39% and 7.95% and 8.00%; in assay [1] (HL-60, 100 μmol/L, 72 h), 5.40% and 5.82% and 6.41%. Moreover, the Survival in assay [2] (A549, 3.12 μmol/L, 72 h) is 98.11% and 95.42% and 95.31%; in assay [2] (A549, 6.25 μmol/L, 72 h) it was 94.17% and 92.31% and 93.11%; in assay [2] (A549, 12.5 μmol/L, 72 h), 76.22% and 81.68% and 69.13%; in assay [2] (A549, 25 μmol/L, 72 h), 21.90% and 23.22% and 22.81%; in assay [2] (A549, 50 μmol/L, 72 h), 9.68% and 8.76% and 9.19%; in assay [2] (A549, 100 μmol/L, 72 h) it was 9.12% and 7.73% and 7.98%. In addition, the “absorbance at 570 nm (single well, S/N 1-3)” value in assay [1] (HL-60, 50 μmol/L, 72 h) is 0.049 and 0.054 and 0.053 and 0.048 and 0.045 and 0.037 and 0.038; in assay [2] (A549, 6.25 μmol/L, 72 h) it was 0.828 and 0.791 and 0.728 and 0.711 and 0.786 and 0.769 and 0.822 and 0.77; in assay [2] (A549, 50 μmol/L, 72 h), 0.085 and 0.074 and 0.077 and 0.059 and 0.071 and 0.079 and 0.088; in assay [2] (A549, 100 μmol/L, 72 h) it was 0.078 and 0.067 and 0.085 and 0.073 and 0.066 and 0.058. The IC50 in assay [1] (setting [3]) is 9.06 ± 0.59 µM; in assay [1] (setting [4]), 9.58 µM and 9.19 µM and 8.42 µM; in assay [1] (HL-60 cells, 72 h, read-out: 72-hour IC50), 9.06 ± 0.59 µM; in assay [2] (setting [5]), 17.5 ± 0.88 µM; in assay [2] (setting [6]) it was 17.6 µM and 18.4 µM and 16.6 µM; in assay [2] (A-549 cells, 72 h, read-out: 72-hour IC50) it was 17.5 ± 0.88 µM.
For lushanrubescensin D, the “inhibitory effect on mouse sarcoma cells” value in the assay on mouse sarcoma cells was “significant inhibitory effect”. The “inhibitory effect on mouse liver cancer cells” value with mouse liver cancer cells is “significant inhibitory effect”.

As a reminder, the IC50 is the concentration that gives 50% inhibition.
